A short description of data set [1]: Dissolution (% released), USP <711> and Ph. Eur. 2.9.3. Type of data set: physicochemical. The conditions noted are these: active released from Triumeq Dispersible Bilayer Tablet; Q = 75% at 60 minutes.
Data set [2] can be described thus: Relative bioavailability: Trii Dispersible tablet (dispersed or direct to mouth) vs adult TRIUMEQ tablet. In kind it is in vivo. The conditions noted are these: for differences in exposure: dispersed or direct to mouth vs. the IR tablet.
A short description of data set [3]: Initial relative bioavailability PK study: Triumeq bilayer tablets dispersed in Contrex or purified water vs 4 x 10 mg DTG tablet + Kivexa. Type of data set: in vivo. The conditions noted are these: for differences in exposure across all 5 arms: Treatments A-E; for AUC0-inf (h*ug/mL) Ratio / Cmax (ug/mL) Ratio: DTG; for impact of DTG solubility on DTG levels in plasma / PK: solubility range studied 16-70%. On the procedure: Treatment (TRT) A: Reference 4×10 mg DTG tablet+Kivexa (ABC 600 mg/3TC 300 mg)
(§1) Treatment B-E: Triumeq bilayer tablets—4 tablets (10 mg DTG/ABC 150 mg/3TC 75 mg) dispersed in high mineral content water (Contrex)* or purified water.
(§2) *Contrex water contains a very high level of minerals including calcium, purified water is mineral free.

Data set [4] is described as follows: Estimate of DTG solubility in the dispersion. In kind it is physicochemical. The conditions noted are these: for solubility when dispersed: Triumeq bilayer tablets dispersed in water. On the procedure: as §1, §2
Setting [5] is: B vs A: bi-layer tablet in Contrex water, immediate, vs 4 × 10 mg tablet + Kivexa.
[6] abbreviates: C vs A: bi-layer tablet in Contrex water, 30 mins, vs control.
[7] abbreviates: D vs A: bi-layer tablet in purified water, immediate, vs control.
The mark [8] stands for this setting: E vs A: bi-layer tablet in purified water, 30 mins, vs control.

We go through 3 compounds from patent US20230233470A1, “Formulations” (ViiV Healthcare Company, priority 2020, published 2023).

`Nc1nc(NC2CC2)c2ncn([C@H]3C=C[C@@H](CO)C3)c2n1` [Abacavir, (1S,4R-4-[2-amino-6-cyclopropylamino)-9H-purin-9-yl]-2-cyclopentene-1-methanol hemisulfate]: the “Dissolution (% released)” value in data set [1] is 101 (99-104) %. Moreover, in data set [2], the differences in exposure entry is “No differences in exposure”. Besides, the “differences in exposure across all 5 arms” value in data set [3] is “no differences in exposure”. For the same compound, the solubility when dispersed entry in data set [4] is “fully soluble”.

Turning to `C[C@@H]1CCO[C@H]2Cn3cc(C(=O)NCc4ccc(F)cc4F)c(=O)c(O)c3C(=O)N12` [Dolutegravir, (4R,12aS)-N-[(2,4-difluorophenyl)methyl]-7-hydroxy-4-methyl-6,8-dioxo-3,4,12,12a-tetrahydro-2H-pyrido[5,6]pyrazino[2,6-b][1,3]oxazine-9-carboxamide], the “Dissolution (% released)” value in data set [1] is 91 (87-95) %. Besides, the “exposure, fold” value was about 1.6 × in data set [2] (dosed as dispersion vs adult immediate release tablet) and about 1.25 × in data set [2] (dosed direct to mouth vs adult immediate release tablet). Further, the “AUC0-inf (h*ug/mL) Ratio” value in data set [3] (setting [5]) is listed as 1.56; in data set [3] (setting [6]), 1.53; in data set [3] (setting [7]), 1.58; in data set [3] (setting [8]) it was 1.54. Moreover, the “Cmax (ug/mL) Ratio” value in data set [3] (setting [5]) came out at 1.59; in data set [3] (setting [6]) it was 1.56; in data set [3] (setting [7]) it was 1.56; in data set [3] (setting [8]), 1.58. Besides, in data set [3] (bilayer tablets dispersed (B-E) vs reference 4×10 mg DTG tablet + Kivexa), the “exposure compared to the reference, fold” value is listed as about 1.6 ×. For the same compound, the “impact of DTG solubility on DTG levels in plasma / PK” value in data set [3] is recorded as “no impact on PK”; in data set [3] (listed as DTG), “does not impact”. Further, the “Estimate of DTG solubility” value is “Approx. 45% DTG” in data set [4] (Treatment B: Bi-layer tablet, Contrex water (Ca++) plus flavour and sweetener, dispersion time immediate); “Approx. 45% DTG” in data set [4] (Treatment C: Bi-layer tablet, Contrex water (Ca++) plus flavour and sweetener, dispersion time 30 mins); “Approx. 70% DTG” in data set [4] (Treatment D: Bi-layer tablet, purified water plus flavour and sweetener, dispersion time immediate); “Approx. 16% DTG” in data set [4] (Treatment E: Bi-layer tablet, purified water plus flavour and sweetener, dispersion time 30 mins).

For `Nc1ccn([C@@H]2CS[C@H](CO)O2)c(=O)n1` [Lamivudine, 2′,3′-dideoxy-3′-thiacytidine], the “Dissolution (% released)” value in data set [1] was 99 (92-106) %. The differences in exposure entry in data set [2] is listed as “No differences in exposure”. Besides, the “differences in exposure across all 5 arms” value in data set [3] is “no differences in exposure”. Further, the solubility when dispersed result in data set [4] is recorded as “fully soluble”.
